Reference: PubChem BioAssay (NCI)
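Step 1: Grow cells in 96-well plates. Step 2: Expose to compound for 48 hours at 5 concentrations. Step 3: Interpolate endpoints linearly; if unreached, use highest concentration. The concentration for 50% growth inhibition is given as GI50. At the TGI there is no net growth.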

Assays:
Test in all cases: growth of human tumour cells (NCI), 48 h
[1] = tested on: SF-268 CNS
[2] = tested on: NCI-H460 lung
[3] = tested on: UACC-257 melanoma
[4] = tested on: SNB-19 CNS
[5] = tested on: U251 CNS
[6] = tested on: M14 melanoma
[7] = tested on: A549 NSCLC
[8] = tested on: OVCAR-4 ovarian
[9] = tested on: MDA-MB-435

Row | Structure (SMILES) | TGI [1] | TGI [2] | TGI [3] | TGI [4] | TGI [5] | TGI [6] | TGI [7] | TGI [8] | GI50 [9] | TGI [9] | GI50 [1] | GI50 [2] | GI50 [3] | GI50 [4] | GI50 [5] | GI50 [6] | GI50 [7] | GI50 [8]
1 | CCCCCCCC(=O)OC(CBr)COC(=O)C(C)(C)C (centres undefined) | > 100 µM | > 100 µM | > 100 µM | > 100 µM | > 100 µM | > 100 µM | > 100 µM | > 100 µM | – | – | – | – | – | – | – | – | – | –
2 | O=c1cc2ccccc2nn1Cc1ccccc1Cl | > 100 µM | > 100 µM | > 100 µM | > 100 µM | > 100 µM | > 100 µM | > 100 µM | > 100 µM | – | – | – | – | – | – | – | – | – | –
3 | Cc1c(C(=O)NCCO)[n+](=O)c2cc(Cl)ccc2n1[O-] | > 100 µM | > 100 µM | > 100 µM | > 100 µM | > 100 µM | > 100 µM | > 100 µM | > 100 µM | – | – | – | – | – | – | – | – | – | –
4 | Cc1ccc(S(=O)(=O)NC(=O)NC23CC4CC(CC(F)(C4)C2)C3)cc1 | – | > 100 µM | > 100 µM | > 100 µM | > 100 µM | > 100 µM | > 100 µM | – | – | – | – | – | – | – | – | – | – | –
5 | CN1NC2(CCCCC2)ON=C1c1ccccc1 | > 100 µM | > 100 µM | > 100 µM | > 100 µM | > 100 µM | > 100 µM | > 100 µM | > 100 µM | – | – | – | – | – | – | – | – | – | –
6 | ClC(Cl)c1nc(-c2cccnc2)n2nc(-c3ccccc3)cc2n1 | 5.76 µM | 4.21 µM | 6.08 µM | 5.89 µM | 5.11 µM | 2.79 µM | 9 µM | 5.78 µM | 1.34 µM | 2.82 µM | 2.28 µM | 1.09 µM | 2.39 µM | 1.88 µM | 1.46 µM | 1.14 µM | 1.3 µM | 2.03 µM
7 | CC(=O)O[C@H]1CC[C@@]2(C)C(=CC[C@H]3[C@@H]4C/C(=C\c5cccc(OCCN6CCOCC6)c5)[C@H](OC(C)=O)[C@@]4(C)CC[C@@H]32)C1 | 58.8 µM | 20.7 µM | 5.04 µM | 29.3 µM | 16.6 µM | 18.9 µM | 20.5 µM | > 100 µM | 11.1 µM | 23.1 µM | 12.6 µM | 6.39 µM | 2.79 µM | 9.13 µM | 4.58 µM | 5.91 µM | 5.05 µM | 8.16 µM
